Among the data in paper PMC6317078 (Science (New York, N.Y.), 2018) are X-ray crystal structure values, retold here.

The target of this assay is T1, zfDHHC15 (Danio rerio, UniProt F1QXD3, C153S).
T1 sequence (F1QXD3 1-332 C153S): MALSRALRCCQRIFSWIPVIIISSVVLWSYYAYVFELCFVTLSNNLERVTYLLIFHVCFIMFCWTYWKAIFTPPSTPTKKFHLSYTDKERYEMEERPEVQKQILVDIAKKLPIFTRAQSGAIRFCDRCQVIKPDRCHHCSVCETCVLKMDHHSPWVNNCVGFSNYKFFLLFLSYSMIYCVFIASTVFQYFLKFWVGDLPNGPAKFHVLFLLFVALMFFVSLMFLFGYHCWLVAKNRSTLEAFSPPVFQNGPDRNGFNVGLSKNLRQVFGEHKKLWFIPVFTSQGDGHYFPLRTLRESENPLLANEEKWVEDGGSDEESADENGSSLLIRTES
The assay is described as follows: X-ray crystal structure. The note with it: 2.54 Å; acyl-binding cavity; ligand modelled into density, not added.

For the compound `CCCCCCCCCCCCCCCC(=O)O` [palmitic acid], the X-ray crystal structure entry was “continuous density in this cavity, which we modeled as a palmitic acid”.
